Read-outs that look alike come from different tables or passages of the source.
Experiments:
[1] = test system: IFN-γ production by OvA-stimulated splenocytes; experiment: OvA-stimulated production of IFN-γ by splenocytes of OvA-immunized mice; format: in vivo; settings: for activity at 0.0001 mg/kg / activity at 0.001 mg/kg / activity at 0.01 mg/kg: Mus musculus, Splenocyte, po, read-out: Production of IFN-γ by splenocytes, % (% of control)
[2] = Clinical manifestations of infectious syndrome (ARVI, ENT diseases, herpes, gastrointestinal, urogenital) after vaccination with SCV-07; format: in vivo, human
Text: The protocol of the placebo-controlled, randomized study of the efficacy of vaccination against viral hepatitis B was approved by the committee of ethics of the Chelyabinsk State Medical Academy. […] Diagnosis of the infectious syndrome was made in accordance with the standards of diagnostics and treatment of secondary immunodeficiencies recommended by the institute of Immunology of the Ministry of Public Health of the RF, Moscow. (R. M. Kahaitov, N. I. Iljina, L. V. and Luss et al., 2002) All subjects gave their personal consent to participate in the study and submitted a signed informed consent form.
Data on the incidence of episodes and relapses of chronic diseases for each immunocompromised subject were recorded during pre- and post vaccination periods and used to compare the immunological clinical parameters of each subject in the pre- and post vaccination periods. Chronic diseases that were tracked included diseases of the ears, nose and throat, urinary systems, genital systems and gastrointestinal tract, and diseases of the skin, hair and nails (the integumentary tissues).
Participants in the study had the following clinical manifestations of infectious syndrome: sixty-seven percent (67%) had acute respiratory viral infections (ARVI) more than four times a year; forty-nine percent (49%) had chronic inflammatory diseases of the ears, nose and throat; forty-five percent (45%) suffered from recurrent herpes viral infections; thirty percent (30%) had chronic inflammatory diseases of the gastrointestinal tract; thirty-three (33%) had recurrent infections of the skin and subcutaneous adipose cellular tissues. Study participants with the spontaneous form of secondary immunodeficiency typically had more than one chronic inflammatory disease. Seventy-one percent (71%) of the subjects with infectious syndrome had three or more different clinical manifestations of a chronic inflammatory disease. Subjects with a single clinical manifestation made up only three percent (3%) of Groups I and II.

[3] = test system: IL-4 production by OvA-stimulated splenocytes; experiment: OvA-stimulated production of IL-4 by splenocytes of OvA-immunized mice
Method: The OvA was administered subcutaneously to the crest in a volume of 200 μl. Mice were immunized on day 1 with OvA in complete Freund's adjuvant (CFA; Sigma) and on day 15 with the antigen in incomplete Freund's adjuvant (IFA; Sigma). The immune response was analyzed on day 29. Mice were also immunized with 10 μg/mouse of OvA using Alum as an adjuvant.
Thymuses and spleens from mice of each treatment group were pooled, and then minced with scissors. The minced tissues were suspended in sterile PBS to form cell suspensions, filtered through a double gauze layer and centrifuged. Cells were washed twice with PBS, re-suspended in RPMI-1640 (Sigma) with 2.0 mM of L-glutamine, 50 μM of mercaptoethanol, and 10 μg/ml of gentamycin (complete medium); and cell counts were made. (The splenocyte suspension was washed with a 0.86% solution of NH4Cl to pre-lyse erthrocytes.)
Assessment of Mitogen- and Antigen-Induced Production of Cytokines: Thymic cells (1×10^6/well) in complete medium with 2% FCS were stimulated with ConA (0, 1, and 2 μg/ml). […] Concentrations of IL-2, IL-4, IL-10, IL-12R40 and IFNγ in the supernatants were determined by solid-phase EIA with EIA Expansion Kits, available from BD Biosciences (formerly Pharmingen), in accordance with the manufacturer's instructions.

[4] = OvA/Alum, 0.1 μg/kg i/p, OvA 10 μg/ml
[5] = OvA/Alum, 0.1 μg/kg i/p, OvA 25 μg/ml
[6] = OvA/Alum, 0.1 μg/kg i/p, OvA 50 μg/ml
[7] = OvA/Alum, 0.1 μg/kg i/p, OvA 100 μg/ml
[8] = OvA/Alum, 1.0 μg/kg i/p, OvA 25 μg/ml
[9] = OvA/Alum, 1.0 μg/kg i/p, OvA 50 μg/ml
[10] = OvA/Alum, 1.0 μg/kg i/p, OvA 100 μg/ml

Compound: N[C@H](CCC(=O)N[C@@H](Cc1c[nH]c2ccccc12)C(=O)O)C(=O)O [SCV-07, γ-D-glutamyl-L-tryptophan]
- activity at 0.0001 mg/kg ([1]; OvA/FA, 0.1 μg/kg per os, OvA 50 μg/ml): 142%
- activity at 0.0001 mg/kg ([1]; OvA/FA, 0.1 μg/kg per os, OvA 100 μg/ml): 136%
- activity at 0.001 mg/kg ([1]; OvA/FA, 1.0 μg/kg per os, OvA 0 μg/ml): 100%
- activity at 0.001 mg/kg ([1]; OvA/FA, 1.0 μg/kg per os, OvA 10 μg/ml): 128%
- activity at 0.001 mg/kg ([1]; OvA/FA, 1.0 μg/kg per os, OvA 25 μg/ml): 87.3%
- activity at 0.001 mg/kg ([1]; OvA/FA, 1.0 μg/kg per os, OvA 50 μg/ml): 116%
- activity at 0.001 mg/kg ([1]; OvA/FA, 1.0 μg/kg per os, OvA 100 μg/ml): 113%
- activity at 0.01 mg/kg ([1]; OvA/FA, 10.0 μg/kg per os, OvA 0 μg/ml): 100%
- activity at 0.01 mg/kg ([1]; OvA/FA, 10.0 μg/kg per os, OvA 10 μg/ml): 83.7%
- activity at 0.01 mg/kg ([1]; OvA/FA, 10.0 μg/kg per os, OvA 25 μg/ml): 66.2%
- activity at 0.01 mg/kg ([1]; OvA/FA, 10.0 μg/kg per os, OvA 50 μg/ml): 75.9%
- activity at 0.01 mg/kg ([1]; OvA/FA, 10.0 μg/kg per os, OvA 100 μg/ml): 74.8%
- Production of IFN-γ by splenocytes ([1]; OvA/Alum, 0.1 μg/kg i/p, OvA 0 μg/ml): 9365 pg/mL
- Production of IFN-γ by splenocytes [1, 4]: 8816 pg/mL
- Production of IFN-γ by splenocytes, % (% of control) [1, 4]: 94.1%
- Production of IFN-γ by splenocytes [1, 5]: 8028 pg/mL
- Production of IFN-γ by splenocytes, % (% of control) [1, 5]: 85.7%
- Production of IFN-γ by splenocytes [1, 6]: 8028 pg/mL
- Production of IFN-γ by splenocytes, % (% of control) [1, 6]: 85.7%
- Production of IFN-γ by splenocytes [1, 7]: 8048 pg/mL
- Production of IFN-γ by splenocytes, % (% of control) [1, 7]: 85.9%
- Production of IFN-γ by splenocytes ([1]; OvA/Alum, 0.1 μg/kg per os, OvA 0 μg/ml): 4642 pg/mL
- Production of IFN-γ by splenocytes ([1]; OvA/Alum, 0.1 μg/kg per os, OvA 10 μg/ml): 5775 pg/mL
- Production of IFN-γ by splenocytes ([1]; OvA/Alum, 0.1 μg/kg per os, OvA 25 μg/ml): 6969 pg/mL
- Production of IFN-γ by splenocytes ([1]; OvA/Alum, 0.1 μg/kg per os, OvA 50 μg/ml): 6969 pg/mL
- Production of IFN-γ by splenocytes ([1]; OvA/Alum, 0.1 μg/kg per os, OvA 100 μg/ml): 7310 pg/mL
- Production of IFN-γ by splenocytes ([1]; OvA/Alum, 1.0 μg/kg i/p, OvA 0 μg/ml): 7129 pg/mL
- Production of IFN-γ by splenocytes ([1]; OvA/Alum, 1.0 μg/kg i/p, OvA 10 μg/ml): 9986 pg/mL
- Production of IFN-γ by splenocytes [1, 8]: 7982 pg/mL
- Production of IFN-γ by splenocytes, % (% of control) [1, 8]: 112.0%
- Production of IFN-γ by splenocytes [1, 9]: 7982 pg/mL
- Production of IFN-γ by splenocytes, % (% of control) [1, 9]: 112.0%
- Production of IFN-γ by splenocytes [1, 10]: 8155 pg/mL
- Production of IFN-γ by splenocytes, % (% of control) [1, 10]: 114.4%
- Production of IFN-γ by splenocytes ([1]; OvA/Alum, 1.0 μg/kg per os, OvA 0 μg/ml): 5620 pg/mL
- Production of IFN-γ by splenocytes ([1]; OvA/Alum, 1.0 μg/kg per os, OvA 10 μg/ml): 5523 pg/mL
- Production of IFN-γ by splenocytes ([1]; OvA/Alum, 1.0 μg/kg per os, OvA 25 μg/ml): 5795 pg/mL
- Production of IFN-γ by splenocytes ([1]; OvA/Alum, 1.0 μg/kg per os, OvA 50 μg/ml): 5795 pg/mL
- Production of IFN-γ by splenocytes ([1]; OvA/Alum, 1.0 μg/kg per os, OvA 100 μg/ml): 6860 pg/mL
- Production of IFN-γ by splenocytes ([1]; OvA/Alum, 10.0 μg/kg per os, OvA 0 μg/ml): 4266 pg/mL
- Production of IFN-γ by splenocytes ([1]; OvA/Alum, 10.0 μg/kg per os, OvA 10 μg/ml): 2045 pg/mL
- Production of IFN-γ by splenocytes ([1]; OvA/Alum, 10.0 μg/kg per os, OvA 25 μg/ml): 5066 pg/mL
- Production of IFN-γ by splenocytes ([1]; OvA/Alum, 10.0 μg/kg per os, OvA 50 μg/ml): 5066 pg/mL
- Production of IFN-γ by splenocytes ([1]; OvA/Alum, 10.0 μg/kg per os, OvA 100 μg/ml): 5976 pg/mL
- Production of IFN-γ by splenocytes, % (% of control) ([1]; OvA/FA, 0.1 μg/kg i/p, OvA 10 μg/ml): 126.6%
- Production of IFN-γ by splenocytes, % (% of control) ([1]; OvA/FA, 0.1 μg/kg i/p, OvA 25 μg/ml): 89.3%
- Production of IFN-γ by splenocytes, % (% of control) ([1]; OvA/FA, 0.1 μg/kg i/p, OvA 50 μg/ml): 118.0%
- Production of IFN-γ by splenocytes, % (% of control) ([1]; OvA/FA, 0.1 μg/kg i/p, OvA 100 μg/ml): 124.3%
- Production of IFN-γ by splenocytes, % (% of control) ([1]; OvA/FA, 1.0 μg/kg i/p, OvA 10 μg/ml): 139.0%
- Production of IFN-γ by splenocytes, % (% of control) ([1]; OvA/FA, 1.0 μg/kg i/p, OvA 25 μg/ml): 112.2%
- Production of IFN-γ by splenocytes, % (% of control) ([1]; OvA/FA, 1.0 μg/kg i/p, OvA 50 μg/ml): 99.0%
- Production of IFN-γ by splenocytes, % (% of control) ([1]; OvA/FA, 1.0 μg/kg i/p, OvA 100 μg/ml): 89.6%
- participants reporting herpes outbreaks one to two times during a year ([2]; after vaccination and SCV-07 (13% before)): 53%
- participants with herpes infections five times a year or more ([2]; after vaccination and SCV-07 administration (40% before)): no participants
- incidence of ARVI ([2]; subjects who previously reported ARVI between 5 and 9 times a year, vaccine + SCV-07): sharply reduced
- participants without episodes or outbreaks of herpes ([2]; vaccinated and received SCV-07): Thirty-four
- subjects with aggravated chronic ENT diseases three to four times a year who had no aggravated incidents during the first year after vaccination ([2]; vaccinated participants that received SCV-07): 35%
- frequency of chronic diseases of the gastrointestinal tract and the urogenital system ([2]; vaccinated participants with infectious syndrome that received SCV-07): did not change
- levels of IL-4 production in supernatants of OvA-stimulated splenocytes ([3]; OvA/Alum, all animal groups): below the sensitivity of the test system
- levels of IL-4 in supernatants of OvA-stimulated splenocytes ([3]; OvA/FA, all animals, below the sensitivity of the test-system): < 6 pg/mL

From patent publication US20090074815A1, “Immunomodulator Compounds as Vaccine Enhancers” (SCICLONE PHARMACEUTICALS, INC., priority 2005, published 2009)
